According to PMC8085982 (Microbial Biotechnology, 2021):
Read-outs that look alike come from different tables or passages of the source.

Assays:
Pp4816 laccase [1] = test: initial rates, OD420, sigmoidal; assay type: biochemical, Pediococcus pentosaceus; conditions: 50 mM sodium citrate pH 3.4, 24 °C; sigmoidal kinetics
Pa5930 laccase [2] = test: initial rates, OD420, sigmoidal; assay type: biochemical, Pediococcus acidilactici; conditions: 50 mM sodium citrate pH 3.4, 24 °C; sigmoidal kinetics
Pa5930 laccase [3] = conditions: 50 mM Tris-HCl pH 7.2, 24 °C
Pp4816 laccase [4] = conditions: 50 mM Tris-HCl pH 7.2, 24 °C

Km (Pp4816 laccase [1]) [µM] | Km (Pa5930 laccase [2]) [µM] | Km (Pa5930 laccase [3]) [µM] | Km (Pp4816 laccase [4]) [µM] | Compound
310 ± 30 | 330 ± 40 |  |  | CCn1c(=NN=c2sc3cc(S(=O)(=O)O)ccc3n2CC)sc2cc(S(=O)(=O)O)ccc21 [ABTS, 2,2‐azino‐bis(3‐ethylbenzothiazoline‐6‐sulfonic acid)]
 |  | 3110 ± 850 | 6330 ± 1320 | COc1cccc(OC)c1O [2,6-DMP, 2,6‐dimethoxyphenol]
